Holding throughout (type): cell-based, human
One test relates to HOSE and HOSE/IRIS cells. Kind of test: Survival of HOSE versus HOSE/IRIS cells. Particulars: 10 μM inhibitor, 24 hours. Here is the method: To test that, HOSE or HOSE/IRIS cells were incubated for 24 hours with 10 μM of ErbB2 (CP-724714), EGFR (Erlotinib), TrkB (K252a), JNK (SP600125), p38 (SB203580), ERK (PD98059) and PI3′K/AKT (LY294002) inhibitors. […] Taken together, BRCA1-IRIS overexpression activates AKT and ERK, thereby inactivating FOXO3a and promoting Cyclin D1, survivin, Bcl-2 and NF-κB expression and suppressing p27 expression (FIG. 15).
HOSE cells overexpressing IRIS show a higher degree of resistance to cisplatin than HOSE cells (compare blue to black line in FIG. 30).
Cell viability measurement. Cell viability under different experimental conditions was determined using the MTS assay […]. Briefly, SKOV3, OVACAR3, HOSE and HOSE/IRIS cells (2.5×10^4 cells per well) were seeded in 96 well plates and incubated overnight at 37° C. in 10% humidified CO2 atmosphere in varying concentrations of IRIS peptide, or inhibitors of ErbB2 (CP-724714), EGFR (Erlotinib), TrkB (K252a), JNK (SP600125), p38 (SB203580), ERK (PD98059) and PI3′K/AKT (LY294002) inhibitors for 24 hours at 37° C. Cell Titer 96® Aqueous (Promega, Madison, Wis., USA) was used to measure viability following manufactures instructions. Cell viability (%) was expressed as a ratio to control cells×100. Growth inhibition was also determined by manually counting cells in five different microscopic fields. Change in cell numbers (fold) was expressed as a ratio to control cells×100. All experiments were done in at least triplicates, three different times. * is p≦0.05, ** is p≦0.001 and *** is p≦0.0001.

The test system of another test is HME and HME/IRIS cells. Kind of test: Survival of HME versus HME/IRIS cells with pathway inhibitors. Particulars: 10 μM inhibitor, 24 hours. Here is the method: Similar numbers of HME or HME/IRIS were grown in the presence of 10 μM of ERK (PD98059), JNK (SP600125), p38 (SB203580), EGFR (Erlotinib), ErbB2 (CP-724714) or PI3′K/AKT (LY294002) inhibitors for 24 hours. In keeping with published data (Nakuci et al., 2006; Hao and ElShamy, 2007; Chock et al., 2010a), BRCA1-IRIS overexpression promoted cells proliferation (FIG. 73). Thus, data are represented as percentage of treatment compared to no treatment in each cell line separately. […] Thus, as expected, cells overexpressing BRCA1-IRIS exerts some of their functions through EGFR/ErbB2 that feeds into PI3′K/AKT/mTOR and MAPK signaling pathways (FIG. 74).
Cell viability measurement. Cell viability under different experimental conditions was determined using the MTS assay. Briefly, cells (2.5×10^4 cells per well) were seeded in 96-well plates and incubated overnight at 37° C. in 10% humidified CO2 atmosphere. The next day they were incubated with varying concentration of peptide, or inhibitors for 24 hours at 37° C. Cell viability was determined using cell Titer 96® Aqueous (Promega, Madison, Wis., USA) following manufacturer's instructions. Cell viability (%) was expressed as a ratio of treated cells to control cells×100. Growth inhibition was also determined by manually counting cells in five different microscopic fields. Change in cell numbers (fold) was expressed as a ratio of the means of these recording of treated cells compared to control cells×100. Each experiment was done in triplicate, repeated three separate times.

The test system of test [1] is AKT, p-AKT, p-FOXO and FOXO3a. Kind of test: Signalling proteins in MDA-MB-231 and MDA-MB-468 cells (Western). The note with it: 5 μM IRIS peptide, 10 μM LY294002 or 10 μM PD98059, 24 hours. An excerpt:
This was completely in line with decreased MDM2 and Skp2 (the ubiquitin ligases responsible for p-FOXO degradation) expression in BRCA1-IRIS silenced and BRCA1-IRIS and AKT inactivated cells (FIG. 87).

The test system of the next test is AKT, ERK, MDM2 and Skp2. Kind of test: Signalling proteins in SKOV3 and OVCAR3 cells (Western). An excerpt:
Finally, to further dissect the IRIS-induced cisplatin resistance pathway, PI3′K/AKT (using […]) and ERK (using PD98059) were inactivated and compared to IRIS peptide in two aggressive ovarian cancer cell lines. […] Phosphorylation of cytoplasmic or nuclear FOXO3a by p-AKT and/or p-ERK promotes MDM2 binding and priming ubiquitylation, which is then followed by Skp2 branching ubiquitylation and FOXO3a degradation (Huang and Tindall, 2011). FOXO was less phosphorylated in LY, PD as well as IRIS-silenced/inactivated SKOV3 or OVCAR3 cells (FIG. 34). […] Consistently, in BRCA1-IRIS silenced/inactivated cells accumulation of unphosphorylated/stabilized FOXO3a was detected. In contrast, FOXO3a was still decreased to different degrees in LY or PD treated cells (FIG. 34).

Another test has as its system BRCA1-IRIS. Kind of test: BRCA1-IRIS expression in breast cells (Western). Particulars: MDA-MB-231 and MDA-MB-468; 5 μM IRIS peptide, 10 μM LY294002 or 10 μM PD98059 24 hours; siRNA 72 hours. Here is the method:
HME and HME/IRIS cells were treated with 10, 20 and 50 μM of paclitaxel for 24 hours. Compared to HME/IRIS cells, untreated HME cells express very low level of BRCA1-IRIS (FIG. 68, left). […] Both EGF and NRG1, which were secreted at higher levels from untreated HME/IRIS cells, remained high after paclitaxel (until ˜50 μM, FIG. 68, left), whereas in HME cells, both were induced by low paclitaxel treatment (FIG. 68, left). Consistently, in HME/IRIS cells EGFR was phosphorylated on Y1173 (activated by EGF when EGFR is in complex with ErbB2) and ErbB2 on Y1248 (activated by NRG1 when ErbB2 is in complex with ErbB3) remained the same after paclitaxel treatment (until ˜50 μM, FIG. 68, left). Phosphorylated EGFR-Y1173 and ErbB2-Y1248 was only observed in paclitaxel treated HME cells, especially at low concentration (FIG. 68, left).
Survived/paclitaxel-resistant cells were then propagated in the absence of paclitaxel and analyzed. Again, the intrinsically high level of BRCA1-IRIS was not affected by paclitaxel in HME/IRIS cells (FIG. 69, left). […] The expressions of EGFR, ErbB2 and ErbB3 were high in HME/IRIS and HME cells (FIG. 69, left). Despite an intrinsic increase in HME/IRIS and paclitaxel-acquired increase in HME cells in AKT activation, FOXO inactivation/degradation and thus activation increase in CyclinD1, survivin, Bcl-2, Bcl-xL and NF-κB was observed (FIG. 69, right).
To test that hypothesis, an intron 11 peptide (right in FIG. 26) fused to a cell/nucleus penetrating signal at its N-terminus (left in FIG. 26) was synthesized (hereafter IRIS peptide). First, to assess the effect of this IRIS peptide, equal numbers of HME, HME/IRIS, MDA-MB-231, MDA-MB-468 and BT549 cells were exposed to increasing concentrations of scrambled or IRIS peptide for 48 hours. […] It is possible that preventing BRCA1-IRIS-X complex formation destabilizes BRCA1-IRIS and perhaps leads to its degradation.
To investigate whether inactivating BRCA1-IRIS could sensitize TNBC to paclitaxel-induced cell death, HME cells were exposed to 0.5 μM, while HME/IRIS, MDA-MB-231, MDA-MB-468 and BT549 cells were exposed to 5 μM of IRIS peptide alone or with 5, 10 or 20 μM of paclitaxel for 24 hours. […] Again, IRIS peptide alone at these concentrations led to 50% reduction in survival of all cell lines. […] Indeed, in the presence of IRIS peptide >60%, >70% and >90% reduction in the survival of all cell lines in the presence of 5, 10 and 20 μM of paclitaxel, respectively (FIG. 84).
To relate the effect of IRIS peptide on cell survival to the effect of BRCA1-IRIS on AKT and ERK survival pathways, MDA-MB-231 and MDA-MB-468 were treated with vehicle, 5 μM of IRIS peptide, 10 μM LY294002, 10 μM PD98059 for 24 hours or were transfected with BRCA1-IRIS siRNA for 72 hours.

The structures appear in SMILES notation.

Regarding `COCC(=O)NC/C=C/c1ccc2ncnc(Nc3ccc(Oc4ccc(C)nc4)c(C)c3)c2c1` [CP-724714], the “effect on survival of HOSE versus HOSE/IRIS cells” value in the test on HOSE and HOSE/IRIS cells is on record as “significantly decreased survival of HOSE/IRIS cells only”. Further, the “effect on survival of HME versus HME/IRIS cells” value with HME and HME/IRIS cells was “specifically reduced survival in HME/IRIS and not HME cells”.

As for `C#Cc1cccc(Nc2ncnc3cc(OCCOC)c(OCCOC)cc23)c1` [Erlotinib], the “effect on survival of HOSE versus HOSE/IRIS cells” value in the test on HOSE and HOSE/IRIS cells is “equally decreased survival of HOSE and HOSE/IRIS cells”. For the same compound, the “effect on survival of HME versus HME/IRIS cells” value in the test on HME and HME/IRIS cells is “reduced survival of both cell lines”.

Take `COC(=O)[C@@]1(O)C[C@H]2O[C@]1(C)n1c3ccccc3c3c4c(c5c6ccccc6n2c5c31)C(=O)NC4` [K252a]: the “effect on survival of HOSE versus HOSE/IRIS cells” value in the test on HOSE and HOSE/IRIS cells is “significantly decreased survival of HOSE/IRIS cells only”.

Turning to `COc1cccc(-c2cc(=O)c3ccccc3o2)c1N` [PD98059], the “effect on survival of HOSE versus HOSE/IRIS cells” value with HOSE and HOSE/IRIS cells is “significantly decreased survival of HOSE/IRIS cells only”. Also, the “effect on survival of HME versus HME/IRIS cells” value in the test on HME and HME/IRIS cells is “specifically reduced survival in HME/IRIS and not HME cells”. Moreover, in test [1], the “p-FOXO and FOXO3a levels” value is recorded as “no effect”. Moreover, in the test with AKT, ERK, MDM2 and Skp2, the “AKT and ERK expression and activation” value was “significantly inactivated their cognate protein”; the “MDM2 and Skp2 expression” value is “reduced Skp2 and not MDM2 expression”. Further, the BRCA1-IRIS expression result in the test on BRCA1-IRIS is “significantly reduced BRCA1-IRIS expression in MDA-MB-231 and to a lesser degree in MDA-MB-468”.

As for `C[S+]([O-])c1ccc(-c2nc(-c3ccncc3)c(-c3ccc(F)cc3)[nH]2)cc1` (stereo not shown) [SB203580], the “effect on survival of HOSE versus HOSE/IRIS cells” value with HOSE and HOSE/IRIS cells is “equally decreased survival of HOSE and HOSE/IRIS cells”. For the same compound, in the test on HME and HME/IRIS cells, the “effect on survival of HME versus HME/IRIS cells” value is listed as “no effect on either cell line”.

Values taken from patent US9303069B2, “Peptides for treating cancer” (University of Mississippi Medical Center, priority 2014, dated 2016).
